The results in this text go back to patent US20260347338A1, “PYRIMIDINE/PYRIDINE DERIVATIVES OR SALTS THEREOF AND PHARMACEUTICAL COMPOSITIONS COMPRISING THE SAME” (YUHAN CORPORATION, priority 2023, published 2026).

Where a name gives a salt, the structure may show the parent alone. A value given as a limit tells only on which side of the number the result lay.

In the experiment the target is T1, human recombinant HPK1 (Homo sapiens, UniProt Q92918).
T1 construct: purchased BPS Bioscience
The experiment in a line: Inhibitory activity against human recombinant HPK1 (TR-FRET). Particulars: ULight-p70S6K peptide, ATP at Km, room temperature, 1 hour, 0.32 to 1000 nM compound. Format: biochemical. The gist of the method: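 Recombinant human HPK1 with ULight-p70S6K peptide and ATP at Km, 1 h at room temperature in HEPES pH 7.4 buffer with Mg2+, Mn2+, EGTA, DTT; compounds 0.32–1000 nM final. EDTA stop, Eu-anti-phosphopeptide TR-FRET read (665 nm); IC50 from % inhibition versus DMSO, binned A–D at 10, 50, 100 nM.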

T1 sequence (Q92918 whole entry): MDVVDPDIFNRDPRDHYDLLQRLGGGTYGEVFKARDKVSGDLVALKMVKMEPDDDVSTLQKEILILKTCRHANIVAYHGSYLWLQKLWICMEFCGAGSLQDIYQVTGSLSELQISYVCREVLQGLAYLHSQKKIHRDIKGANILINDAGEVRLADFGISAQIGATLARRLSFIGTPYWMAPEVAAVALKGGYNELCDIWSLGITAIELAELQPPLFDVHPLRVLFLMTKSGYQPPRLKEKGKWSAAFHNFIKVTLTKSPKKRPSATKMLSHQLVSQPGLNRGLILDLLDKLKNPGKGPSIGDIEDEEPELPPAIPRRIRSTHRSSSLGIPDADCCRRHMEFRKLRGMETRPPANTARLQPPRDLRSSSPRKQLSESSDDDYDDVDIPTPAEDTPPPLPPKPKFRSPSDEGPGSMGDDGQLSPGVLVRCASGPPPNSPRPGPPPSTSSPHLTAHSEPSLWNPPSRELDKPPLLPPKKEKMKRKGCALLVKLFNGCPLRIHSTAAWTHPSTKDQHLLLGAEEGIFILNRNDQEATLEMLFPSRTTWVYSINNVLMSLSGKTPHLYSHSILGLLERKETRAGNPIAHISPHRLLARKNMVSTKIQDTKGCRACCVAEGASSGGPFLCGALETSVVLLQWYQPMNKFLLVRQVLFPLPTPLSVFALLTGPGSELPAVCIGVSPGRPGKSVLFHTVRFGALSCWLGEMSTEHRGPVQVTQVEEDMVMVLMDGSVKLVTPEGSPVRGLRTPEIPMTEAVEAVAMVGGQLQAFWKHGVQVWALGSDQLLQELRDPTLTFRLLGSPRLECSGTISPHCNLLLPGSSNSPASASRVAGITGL

Take `COc1cc(CO)cc(F)c1-c1nccc(Nc2cc(N3CCC[C@H](O)C3)c(-c3cnn(C4CCOCC4)c3)cn2)n1` [Example 161, (S)-1-(2-((2-(2-fluoro-4-(hydroxymethyl)-6-methoxyphenyl)pyrimidin-4-yl)amino)-5-(1-(tetrahydro-2H-pyran-4-yl)-1H-pyrazol-4-yl)pyridin-4-yl)piperidin-3-ol]: the IC50 is no more than 10 nM. For `COc1cccc(F)c1-c1nccc(Nc2cc(N3CCC[C@H](N)C3)c(-c3cnn(CCN4CCOCC4)c3)cn2)n1` [Example 162, (S)-N-(4-(3-aminopiperidin-1-yl)-5-(1-(2-morpholinoethyl)-1H-pyrazol-4-yl)pyridin-2-yl)-2-(2-fluoro-6-methoxyphenyl)pyrimidin-4-amine hydrochloride] the value was no more than 10 nM. For `COc1cccc(F)c1-c1nccc(Nc2cc(N3CCC[C@H](N)C3)c(-c3cnn(CCN4CCCC4)c3)cn2)n1` [Example 163, (S)-N-(4-(3-aminopiperidin-1-yl)-5-(1-(2-(pyrrolidin-1-yl)ethyl)-1H-pyrazol-4-yl)pyridin-2-yl)-2-(2-fluoro-6-methoxyphenyl)pyrimidin-4-amine hydrochloride] the value was no more than 10 nM. In the case of `COc1cccc(F)c1-c1nccc(Nc2cc(N3CCC[C@H](N)C3)c(C#Cc3cnn(C(F)F)c3)cn2)n1` [Example 164, (S)-N-(4-(3-aminopiperidin-1-yl)-5-((1-(difluoromethyl)-1H-pyrazol-4-yl)ethynyl)pyridin-2-yl)-2-(2-fluoro-6-methoxyphenyl)pyrimidin-4-amine hydrochloride], the IC50 is no more than 10 nM. With `COc1cccc(F)c1-c1nccc(Nc2cc(N3CCC[C@H](N)C3)c(C#Cc3cnn(CC(F)F)c3)cn2)n1` [Example 165, (S)-N-(4-(3-aminopiperidin-1-yl)-5-((1-(2,2-difluoroethyl)-1H-pyrazol-4-yl)ethynyl)pyridin-2-yl)-2-(2-fluoro-6-methoxyphenyl)pyrimidin-4-amine hydrochloride], the IC50 is no more than 10 nM. Take `COc1cccc(F)c1-c1nccc(Nc2cc(N3CCC[C@H](N)C3)c(C#Cc3cnn(CC(F)(F)F)c3)cn2)n1` [Example 166, (S)-N-(4-(3-aminopiperidin-1-yl)-5-((1-(2,2,2-trifluoroethyl)-1H-pyrazol-4-yl)ethynyl)pyridin-2-yl)-2-(2-fluoro-6-methoxyphenyl)pyrimidin-4-amine hydrochloride]: the IC50 was no more than 10 nM. For `COc1cccc(F)c1-c1nccc(Nc2cc(N3CCC[C@H](N)C3)c(-c3cnn(CCC(N)=O)c3)cn2)n1` [Example 167, (S)-3-(4-(4-(3-aminopiperidin-1-yl)-6-((2-(2-fluoro-6-methoxyphenyl)pyrimidin-4-yl)amino)pyridin-3-yl)-1H-pyrazol-1-yl)propanamide hydrochloride] the value was no more than 10 nM. For `COc1cccc(F)c1-c1nccc(Nc2cc(N3CCC[C@H](N)C3)c(-c3cnn(C4CNC4)c3)cn2)n1` [Example 168, (S)-N-(4-(3-aminopiperidin-1-yl)-5-(1-(azetidin-3-yl)-1H-pyrazol-4-yl)pyridin-2-yl)-2-(2-fluoro-6-methoxyphenyl)pyrimidin-4-amine hydrochloride] the value was no more than 10 nM; for `COc1cccc(F)c1-c1nc(Nc2cc(N3CCC[C@H](N)C3)c(-c3cnn(CC(F)F)c3)cn2)ccc1N` [Example 169, N^2-(4-((S)-3-aminopiperidin-1-yl)-5-(1-(2,2-difluoroethyl)-1H-pyrazol-4-yl)pyridin-2-yl)-6-(2-fluoro-6-methoxyphenyl)pyridin-2,5-diamine hydrochloride], no more than 10 nM. For `COc1cccc(F)c1-c1nc(Nc2cc(N3CCC[C@H](N)C3)c(-c3cnn(CC(F)(F)F)c3)cn2)ccc1N` [Example 170, N^2-(4-((S)-3-aminopiperidin-1-yl)-5-(1-(2,2,2-trifluoroethyl)-1H-pyrazol-4-yl)pyridin-2-yl)-6-(2-fluoro-6-methoxyphenyl)pyridin-2,5-diamine hydrochloride] the value was no more than 10 nM; for `COc1cc(F)cc(F)c1-c1nccc(Nc2cc(N3CCC[C@H](O)C3)c(-c3cnn(C(F)(F)F)c3)cn2)n1` [Example 171, (S)-1-(2-((2-(2,4-difluoro-6-methoxyphenyl)pyrimidin-4-yl)amino)-5-(1-(trifluoromethyl)-1H-pyrazol-4-yl)pyridin-4-yl)piperidin-3-ol], no more than 10 nM. On to `COc1cc(F)cc(F)c1-c1nccc(Nc2cc(N3CCC[C@H](O)C3)c(-c3cnn(CC(F)F)c3)cn2)n1` [Example 172, (S)-1-(2-((2-(2,4-difluoro-6-methoxyphenyl)pyrimidin-4-yl)amino)-5-(1-(2,2-difluoroethyl)-1H-pyrazol-4-yl)pyridin-4-yl)piperidin-3-ol], for which the IC50 was no more than 10 nM. The figure for `COc1cccc(F)c1-c1nc(Nc2cc(N3CCC[C@H](N)C3)c(-c3cnn(C(F)(F)F)c3)cn2)ccc1N` [Example 173, N^2-(4-((S)-3-aminopiperidin-1-yl)-5-(1-(trifluoromethyl)-1H-pyrazol-4-yl)pyridin-2-yl)-6-(2-fluoro-6-methoxyphenyl)pyridin-2,5-diamine hydrochloride] is no more than 10 nM; for `COc1cc(F)cc(F)c1-c1nccc(Nc2cc(N3CCC[C@H](O)C3)c(-c3cnn(CC(F)(F)F)c3)cn2)n1` [Example 174, (S)-1-(2-((2-(2,4-difluoro-6-methoxyphenyl)pyrimidin-4-yl)amino)-5-(1-(2,2,2-trifluoroethyl)-1H-pyrazol-4-yl)pyridin-4-yl)piperidin-3-ol] it is no more than 10 nM; for `COc1cccc(F)c1-c1nccc(Nc2cc(N3CCC[C@H](N)C3)c(-c3cnn(CC(F)(F)F)c3)nn2)n1` [Example 175, (S)-5-(3-aminopiperidin-1-yl)-N-(2-(2-fluoro-6-methoxyphenyl)pyrimidin-4-yl)-6-(1-(2,2,2-trifluoroethyl)-1H-pyrazol-4-yl)pyridazin-3-amine hydrochloride] it is no more than 10 nM. The figure for `COc1cccc(F)c1-c1nccc(Nc2cc(N3CCC[C@H](N)C3)c(-c3ccc(C(=O)N4CCN(C)CC4)cc3)cn2)n1` [Example 176, (S)-(4-(4-(3-aminopiperidin-1-yl)-6-((2-(2-fluoro-6-methoxyphenyl)pyrimidin-4-yl)amino)pyridin-3-yl)phenyl)(4-methylpiperazin-1-yl)methanone hydrochloride] is no more than 10 nM; for `COc1cccc(F)c1-c1nc(Nc2cc(N3CCC[C@H](O)C3)c(-c3cnn(C4CCOCC4)c3)cn2)ccc1N` [Example 177, (3S)-1-(2-((5-amino-6-(2-fluoro-6-methoxyphenyl)pyridin-2-yl)amino)-5-(1-(tetrahydro-2H-pyran-4-yl)-1H-pyrazol-4-yl)pyridin-4-yl)piperidin-3-ol] it is no more than 10 nM; for `COc1cccc(F)c1-c1nc(Nc2cc(N3CCC[C@H](O)C3)c(-c3cnn(C(F)(F)F)c3)cn2)ccc1N` [Example 178, (3S)-1-(2-((5-amino-6-(2-fluoro-6-methoxyphenyl)pyridin-2-yl)amino)-5-(1-(trifluoromethyl)-1H-pyrazol-4-yl)pyridin-4-yl)piperidin-3-ol] it is no more than 10 nM. For `COc1cccc(F)c1-c1nc(Nc2cc(N3CCC[C@H](O)C3)c(-c3cnn(CC(F)F)c3)cn2)ccc1N` [Example 179, (3S)-1-(2-((5-amino-6-(2-fluoro-6-methoxyphenyl)pyridin-2-yl)amino)-5-(1-(2,2-difluoroethyl)-1H-pyrazol-4-yl)pyridin-4-yl)piperidin-3-ol] the value was no more than 10 nM.

Consider `COc1cccc(F)c1-c1nc(Nc2cc(N3CCC[C@H](O)C3)c(-c3cnn(CC(F)(F)F)c3)cn2)ccc1N` [Example 180, (3S)-1-(2-((5-amino-6-(2-fluoro-6-methoxyphenyl)pyridin-2-yl)amino)-5-(1-(2,2,2-trifluoroethyl)-1H-pyrazol-4-yl)pyridin-4-yl)piperidin-3-ol], for which the IC50 was no more than 10 nM. As for `COc1cccc(F)c1-c1nc(Nc2cc(N3CCC[C@H](N)C3)c(-c3cnn(C4CCOCC4)c3)cn2)ccc1N` [Example 181, N^2-(4-((S)-3-aminopiperidin-1-yl)-5-(1-(tetrahydro-2H-pyran-4-yl)-1H-pyrazol-4-yl)pyridin-2-yl)-6-(2-fluoro-6-methoxyphenyl)pyridin-2,5-diamine hydrochloride], the IC50 is no more than 10 nM. Turning to `COc1cc(F)cc(F)c1-c1nccc(Nc2cc(N3CCC[C@H](O)C3)c(-c3cnn(C(F)F)c3)cn2)n1` [Example 182, (S)-1-(2-((2-(2,4-difluoro-6-methoxyphenyl)pyrimidin-4-yl)amino)-5-(1-(difluoromethyl)-1H-pyrazol-4-yl)pyridin-4-yl)piperidin-3-ol], the IC50 was no more than 10 nM. The figure for `COc1cc(F)cc(F)c1-c1nc(Nc2cc(N3CCC[C@H](O)C3)c(-c3cnn(C(F)F)c3)cn2)ccc1[N+](=O)[O-]` [Example 183, (3S)-1-(2-((6-(2,4-difluoro-6-methoxyphenyl)-5-nitropyridin-2-yl)amino)-5-(1-(difluoromethyl)-1H-pyrazol-4-yl)pyridin-4-yl)piperidin-3-ol] is no more than 10 nM; for `COc1cc(F)cc(F)c1-c1nc(Nc2cc(N3CCC[C@H](O)C3)c(-c3cnn(C(F)F)c3)cn2)ccc1N` [Example 184, (3S)-1-(2-((5-amino-6-(2,4-difluoro-6-methoxyphenyl)pyridin-2-yl)amino)-5-(1-(difluoromethyl)-1H-pyrazol-4-yl)pyridin-4-yl)piperidin-3-ol] it is no more than 10 nM. As for `COC(=O)c1cc(F)c(-c2nccc(Nc3cc(N4CCC[C@H](N)C4)c(-c4cnn(C(F)F)c4)cn3)n2)c(OC)c1` [Example 185, methyl (S)-4-(4-((4-(3-aminopiperidin-1-yl)-5-(1-(difluoromethyl)-1H-pyrazol-4-yl)pyridin-2-yl)amino)pyrimidin-2-yl)-3-fluoro-5-methoxybenzoate hydrochloride], the IC50 is no more than 10 nM.
